Data from PMC9354408, “How to Achieve Sufficient Endogenous Insulin Suppression in Euglycemic Clamps Assessing the Pharmacokinetics and Pharmacodynamics of Long-Acting Insulin Preparations Employing Healthy Volunteers” (Frontiers in Pharmacology, 2022).

Key:
Format in all cases: in vivo, healthy Chinese men and women
[1] = system: endogenous insulin secretion; assay: Serum C-peptide during clamp (endogenous insulin suppression, direct chemiluminescence); conditions: arithmetic mean ± SD; for Mean postdose C-peptide: after 0.5 IU/kg s.c. IGlar; for C-peptide reduction: postdose versus baseline
Method: (§1) All enrolled subjects underwent a euglycemic glucose clamp lasting for up to 24 h after a 0.5-IU/kg IGlar injection. All the participants were restrained from strenuous exercise, smoking, alcohol, or caffeinated drinks. Since a C-peptide suppression of more than 50% is widely recognized as sufficient endogenous insulin suppression, the subjects fell into two groups based on the ratio of C-peptide reduction from baseline (group A: C-peptide reduction <50%; group B: C-peptide reduction ≥50%). The data were collected from a clinical trial (NCT03555305) ([Liu et al., 2021]), which was conducted to evaluate the pharmacokinetic and pharmacodynamic equivalence of an IGlar biosimilar (LY2963016) manufactured by Eli Lilly to Lantus manufactured by Sanofi.
(§2) A 6-ml blood sample for analysis of C-peptide and total insulin levels were collected before drug administration (0.5 and 0 h before dosing) and every 0.5–3 h throughout the clamp as described before ([Liu et al., 2021]). The whole blood sample was drawn into a serum tube and gently mixed by inversion (>5 times). Then the sample was required to clot for 30–60 min at room temperature. The tube was centrifuged at 1,500–2000g for 15–20 min to separate serum. The serum was transferred without red blood cells contained, and frozen at -70 °C until shipment for analysis. The concentration of total insulin was determined by a validated radioimmunoassay method ([Kuerzel et al., 2003]; [Shen et al., 2019]) with a quantification range of 50–2000 pmol/L at WuXi AppTec Co., Ltd. in Shanghai, China. The exogenous IGlar level was calculated by subtracting the endogenous insulin based on C-peptide using Owens’s method ([Owens, 1986]). The C-peptide concentration was analyzed by a direct chemiluminescent technology in Covance Laboratory (Shanghai, China) with a quantification range of 0.07–352 ng/ml.
(§3) If a measured value of total insulin or C-peptide was below the lower limit of quantification, it would be included in statistics as half of the limit. A calculated value of IGlar below zero after C-peptide correction would be excluded from the PK statistics. The primary PK parameters included the area under the curve (AUC) of IGlar from time 0–24 h (AUCIGlar, 0–24 h) and the maximum IGlar (IGlarmax) corrected by C-peptide. Other PK parameters included AUC of IGlar from 0 to 12 h (AUCIGlar, 0–12 h) and time to IGlarmax (tIGlarmax).

[2] = Serum total insulin during clamp (radioimmunoassay); design: AUCTotal insulin,0-12h / AUCTotal insulin,0-24h: unit not given here; conditions: 0.5 IU/kg s.c., arithmetic mean ± SD; for AUCTotal insulin,0-12h / AUCTotal insulin,0-24h: serum, before C-peptide correction
Method: as §1, §2, §3

[3] = Manual euglycemic glucose clamp, glucose infusion rate (pharmacodynamics); conditions: for AUCGIR,0-24h / GIRmax / tGIRmax: 0.5 IU/kg s.c., arithmetic mean ± SD; for AUCGIR,0-12h: single 0.5 IU/kg s.c. IGlar (LY2963016 or Lantus), clamp up to 24 h, target BG 0.28 mmol/L below baseline, median (interquartile range); for GIRmax after correction / AUCGIR, 0–24 h after correction: corrected using the corresponding exogenous IGlar parameter as a covariant; for AUCGIR, 0–24 h after correction: first mention
Method: as §1
At the dosing visit, an overnight fast of at least 8 h must be guaranteed prior to IGlar administration. Two catheters were placed into the antecubital vein and the hand vein, respectively, for 20% dextrose infusing and blood sampling correspondingly. The baseline of BG was defined as the mean of three BG measurements at 30, 20, and 10 min prior to the IGlar administration. A single dose (0.5 IU/kg) of Lantus or LY2963016 was subcutaneously injected into a lifted abdominal skinfold. A 0.1-ml blood sample was collected from the hand vein which was continuously heated in a warm blanket (55 ± 5 °C) at an interval of 10–20 min for the analysis of BG levels. A variable GIR was frequently adjusted and timely recorded to maintain the BG around 0.28 mmol/L below the baseline and represent the pharmacodynamic activity of IGlar, respectively.
The BG levels were immediately determined in whole blood at the bedside by a glucose analyzer (Biosen C_line, EKF Diagnostics, Barleben, Germany) with the glucose oxidase method. The measuring range of this method was 0.5–50 mmol/L with a high precision of 1.5%. The clamp would end if no exogenous glucose infusion was required for at least 0.5 h.
Individual GIR values were smoothed by a locally weighted scatterplot smoothing technique. The maximum GIR (GIRmax) and the total amount of glucose infused throughout the clamp (AUCGIR, 0–24 h) were defined as primary PD parameters. Secondary PD parameters included time to GIRmax (tGIRmax) and AUC of GIR from 0 to 12 h (AUCGIR, 0–12 h).

[4] = Pharmacokinetics of exogenous IGlar (total insulin radioimmunoassay, C-peptide corrected by Owens's method); conditions: 0.5 IU/kg s.c., arithmetic mean ± SD; for AUCIGlar,0-12h / AUCIGlar,0-24h / IGlarmax: serum, C-peptide corrected
Method: as §1, §2, §3

[5] = group A (C-peptide reduction <50%), N = 52
[6] = group B (C-peptide reduction >=50%), N = 26

insulin glargine [IGlar]
Mean postdose C-peptide [1, 5]: 201 ± 74 pmol/L | C-peptide reduction ([1]; group A (defined by C-peptide reduction <50%), N = 52): 39.5 ± 6.7% | Mean postdose C-peptide [1, 6]: 134 ± 50 pmol/L | C-peptide reduction ([1]; group B (defined by C-peptide reduction >=50%), N = 26): 57.4 ± 5.5% | Maximum total insulin [2, 5]: 151.8 ± 42.0 pmol/L | Time of maximum total insulin [2, 5]: 10.9 ± 5.55 h | AUCTotal insulin,0-12h [2, 5]: 1,444 ± 398 | AUCTotal insulin,0-24h [2, 5]: 2,853 ± 713 | Maximum total insulin [2, 6]: 162.1 ± 41.9 pmol/L | Time of maximum total insulin [2, 6]: 10.8 ± 3.77 h | AUCTotal insulin,0-12h [2, 6]: 1,510 ± 368 | AUCTotal insulin,0-24h [2, 6]: 2,958 ± 626 | AUCGIR,0-24h [3, 5]: 2,415 ± 953 mg/kg | GIRmax [3, 5]: 2.82 ± 1.06 mg/kg/min | tGIRmax [3, 5]: 666 ± 202 min | AUCGIR,0-12h [3, 5]: 989 (642) mg/kg | GIRmax after correction ([3]; group A): 2.96 mg/kg/min | AUCGIR, 0–24 h after correction ([3]; group A): 2,513 mg/kg | AUCGIR,0-24h [3, 6]: 2,891 ± 908 mg/kg | GIRmax [3, 6]: 3.36 ± 1.07 mg/kg/min | tGIRmax [3, 6]: 678 ± 180 min | AUCGIR,0-12h [3, 6]: 1,320 (615) mg/kg | GIRmax after correction ([3]; group B): 3.09 mg/kg/min | AUCGIR, 0–24 h after correction ([3]; group B): 2,697 mg/kg | tIGlarmax [4, 5]: 11.7 ± 3.97 h | AUCIGlar,0-12h [4, 5]: 1,099 ± 342 pmol/L×h | AUCIGlar,0-24h [4, 5]: 2,194 ± 597 pmol/L×h | IGlarmax [4, 5]: 122.7 ± 37.7 pmol/L | tIGlarmax [4, 6]: 11.6 ± 2.66 h | AUCIGlar,0-12h [4, 6]: 1,295 ± 360 pmol/L×h | AUCIGlar,0-24h [4, 6]: 2,534 ± 597 pmol/L×h | IGlarmax [4, 6]: 147.7 ± 42.5 pmol/L
